In EP0072027A1, “Antiviral compounds” (THE WELLCOME FOUNDATION LIMITED, priority 1981, dated 1983):
In brackets after ≈: the same amount, converted by molar mass.

How the values were obtained:
[1] = tested on: herpes simplex virus type 1; assay: Comparative in vivo activity against herpetic encephalitis in mice (Example 18); design: species or system CD.1 mice; conditions: for Mean reciprocal survival time: 100 mg/kg/dose twice daily for 4½ days, 300 LD50
Protocol: CD.1 mice weighing 16 - 20 gm were obtained from Charles River, Manston, Kent, U.K. The animals were housed in groups of approximately 10 and were given food and water ad lib.
The compounds namely acyclovir, 134U, 759U and 457U, were prepared as suspensions or solutions in sterile water at a concentration of 20 mg/ml prior to each experiment, and were stored at 4°C during the dosing period.
The ICI strain of herpes simplex virus type 1 was used for all experiments at a concentration of 300 LD50 (10^5 pfu)/ml). Dilutions from virus stocks ([…]) were prepared in PBS 'A'.
The test procedure is analoguous to that described in Example 13.
Three experiments were performed, in which three routes of compound administration were examined: i) subcutaneous, ii) oral and iii) intraperitoneal. […]

Solubility in water = format: physicochemical
Description: As mentioned above, the compounds of formula (I) have the important advantage of having a greater solubility in water than acyclovir. Thus, the compounds of formula (I) wherein X is an oxygen atom and R is a hydroxy group or amino group have solubilities of 0.4 -.0.5% and 2 - 3% w/w respectively compared with a figure of 0.14% w/w for acyclovir.

[2] = tested on: EHV-1 Pneumabort vaccine strain; assay: Comparative in vivo activity against equine rhinopneumonitis virus in hamsters, medicated drinking water (Example 15); design: species or system Syrian hamsters; conditions: for Cumulative mortality (out of 15) on day: water conc. 0.075 mg/ml, average intake 6.6-6.8 mg/kg/day
Protocol: 50 male WO/CR Syrian hamsters were caged randomly in 10 groups of 5, with water and food (seed mix) ad lib. Hamsters were weighed on Days -3, 0, 4, and/or- at death/sacrifice. Water consumption was recorded over Days -3 to 0 to 4.
EHV-1 Pneumabort vaccine strain stored as a 10^-1 dilution, was further diluted 10^-1 in PBS for infection. On Day 0, hamsters in Groups 1-9 received 0.2 ml virus inoculum s/c in the left flank equivalent to about 2 x 10^5 PFU (plaque-forming units).
457U and 759U were dissolved in drinking water at 0.075 mg/ml. Assuming an average daily intake of […], this would result in a daily dose of around 10 mg/kg. Medicated water was provided from approximately 5 hours pre-infection for 96 hours, as below
The drug intake was calculated from the weight of the animals and the water consumption recorded over the period of the experiment.

adenosine deaminase = adenosine deaminase (Homo sapiens, UniProt P00813); conditions: Tetrahedron Letters, 21, 1980, 327-330; cited from earlier work
Chain of adenosine deaminase (P00813 whole entry): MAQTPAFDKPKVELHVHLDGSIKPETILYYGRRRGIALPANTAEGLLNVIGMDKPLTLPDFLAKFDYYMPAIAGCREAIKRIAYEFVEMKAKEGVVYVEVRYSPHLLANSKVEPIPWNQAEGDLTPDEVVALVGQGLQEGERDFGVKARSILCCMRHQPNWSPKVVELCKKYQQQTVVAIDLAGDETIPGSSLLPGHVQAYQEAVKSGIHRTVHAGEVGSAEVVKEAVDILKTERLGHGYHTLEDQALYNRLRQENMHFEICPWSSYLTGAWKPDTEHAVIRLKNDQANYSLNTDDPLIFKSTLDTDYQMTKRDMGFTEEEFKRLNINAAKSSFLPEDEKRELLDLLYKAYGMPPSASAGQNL

SMILES | Mean reciprocal survival time ([1]; Oral) | Mean reciprocal survival time ([1]; i.p.) | Mean reciprocal survival time ([1]; s.c.) | solubility (Solubility in water) | deaths from virus-induced hepatitis ([2]; in 15 treated hamsters, 14 deaths in 15 untreated controls) | prevention of EHV-1 induced mortality ([2]; orally in drinking water, approximately 7 mg/kg/day) | Cumulative mortality (out of 15) on day ([2]; day 2) | Cumulative mortality (out of 15) on day ([2]; day 3) | Cumulative mortality (out of 15) on day ([2]; day 4+) | antiviral effect compared with acyclovir and 134U ([1]; any of the three routes, difference highly significant) | competitive inhibition of the enzyme (adenosine deaminase) | substrate for the enzyme (adenosine deaminase)
Nc1nc(N)c2ncn(COCCO)c2n1 [Example 134U, 2-amino-9-(2-hydroxy-methoxymethyl) adenine, reference compound] | 0.222 | 0.231 | 0.226 |  |  |  |  |  |  |  |  | 
Nc1nc(N)c2ncn(COC(CO)CO)c2n1 [Example 457U, 9-[(2-hydroxy-1-hydroxymethylethoxy)methyl]-2,6-diaminopurine] | 0.155 | 0.077 | 0.102 | 20 to 30 mg/mL (≈ 78.7 to 118 mM) | 1 | almost completely prevented | 0 | 1 | 1 | greatest antiviral effect |  | 
Nc1ncnc2c1ncn2COC(CO)CO |  |  |  |  |  |  |  |  |  |  | weak competitive inhibitor | poor substrate
